Reference: patent US20240238228A1, “COMPOSITIONS AND METHODS FOR TREATING ALLERGIES AND INFLAMMATORY CONDITIONS” (UNIVERSITY OF PITTSBURGH-OF THE COMMONWEALTH SYSTEM OF …, priority 2021, published 2024)

Columns and labels:
atopic dermatitis = test: MC903-induced atopic dermatitis model; format: in vivo, murine; conditions: MC903 4 nmol/ear daily, glyburide 2.5 mg/kg, i.p.
Experimental: Atopic dermatitis was induced by treating ears with MC903 (4 nmol/ear, daily). The contralateral ear was treated with the vehicle for MC903. Mice were treated with either glyburide (2.5 mg/kg, i.p., daily) or vehicle control. (A) Ear thickness was measured daily. (B-C) On day 11, mice were euthanized and ear tissue embedded sectioned and stained with (B) H & E to evaluate cellular infiltration or (C) Avidin (AvRho) to evaluate mast cells. […] (B-C) show representative images from 3-7 mice over two experiments.

peanut allergy = test: Peanut allergy desensitization by microneedle arrays; format: in vivo, mouse; conditions: delivered with peanut antigen by microneedle arrays to sensitized mice
inflammasome = conditions: cited from earlier work
sepsis = conditions: in vivo; cited from earlier work
STAT5 = STAT5 phosphorylation (flow cytometry) and nuclear localization (ImageStream) in BMMCs; format: cell-based, murine
Experimental: To detect phospho-Stat5Tyr694, MCs were loaded with IgE in serum and cytokine-free RPMI. Neurokinin A (1.0 μM) or vehicle control and DNP-HSA (100 ng/mL) were added simultaneously. At the indicated time, cells were fixed with 2.0% paraformaldehyde for 10 minutes then permeabilized with 90% methanol overnight at −20° C. Cells were stained with monoclonal anti-phospho-Stat5 Tyr694 Alexa Fluor 647 (clone C71E5, Cell Signaling Technology) for 60 minutes at room temperature. Nuclear co-localization was evaluated using ImageStream (Amnis). Activated BMMCs were fixed with 2.0% paraformaldehyde, permeabilized with Permeabilization Wash Buffer containing 3% FBS and 0.1% Triton X-100. and stained with anti-STAT5B Alexa Fluor 488 (clone EPR16671, Abcam) and DAPI. Data were analyzed using the Co-localization Wizard in IDEAS (v6.2). Co-localization for single cells expressing STAT5B and DAPI was quantified as Similarity Score, a log-transformed Pearson's correlation coefficient for the pixel intensity of corresponding images.

calpain = test: Calpain activity in cell-free supernatants of activated PMCs; format: cell-based, murine; conditions: IgE+Ag with or without NKA for 60 min
Experimental: Calpain activity was detected from cell-free supernatants using the Calpain-Glo Protease Assay (Promega). Supernatants were incubated with substrate for 10 min prior to luminescent detection. In some experiments, glyburide or vehicle (0.1% DMSO) were added to cells 10 min prior to Ag. ELISA kits from eBioscience (IL-13), BioLegend, (TNF and IL-10) or RayBiotech (NKA) and used in accord with the manufacturer's recommendations.

ABCA1 [1] = test: Surface ABCA1 expression on activated BMMCs (flow cytometry); format: cell-based, murine; conditions: 30 minutes after IgE-initiated activation; NKA 1000 nM
Experimental: (§1) MCs were collected and washed with PBS containing 0.5% BSA and 0.1% sodium azide. Non-specific binding was inhibited using FcBlock (PBS with 2.0% goat serum and 0.25 mg/mL anti-CD16/32 (clone 2.4G2, BD Biosciences). Surface staining was done with anti-CD117 eFluor450 (clone 2B8, ThermoFisher), anti-FcεRI FITC (clone MAR-1, ThermoFisher) and anti-ABCA1 Alexa Fluor 647 (clone 5A1-1422, BioRad). Cells were washed with Wash Buffer (PBS with 0.5% BSA and 0.1% sodium azide). To detect differences in granulated proteins at the cell surface, IgE-loaded MCs were activated with DNP-HSA with or without NKA in Tyrode's Buffer for 30 min, washed with Wash Buffer then stained with Avidin Alexa Fluor488 (Invitrogen, Av488, 0.8 μg/5×10^5 cells) and anti-LAMP-1 PE (clone eBio 1D48, ThermoFisher). Data were acquired on either a LSRII or a Fortessa (BD BioSciences). Analysis was performed with FlowJo v10.4 (BD Biosciences).

ABCA1 [2] = test: Surface ABCA1 expression on activated PMCs (flow cytometry); format: cell-based, murine; conditions: 30 minutes after IgE-initiated activation; NKA 1000 nM
Experimental: as §1

IL10 mRNA = IL10 mRNA in ear skin 3 h after NKA injection; format: in vivo, mouse
Experimental: Total RNA was isolated from either MCs or murine ear tissue 3 h hours after NKA injection. Tissue was homogenized in Navy RINO tubes (Next Advance) in a Bullet Blender Storm (Next Advance). RNA was extracted per standard methods with Trizol (Invitrogen). cDNA was reversed transcribed with the Quantitech Reverse Transcription Kit (Qiagen). PCR products were amplified with Fast SybrGreen (ABI) on a StepOne Plus Cycler ([…]) using the following primers: TNF […] NO: 5), TNF […] NO: 6); IL13 […] NO: 7), IL13 […] NO: 8); IL10 […] NO: 9); IL10 […] NO: 10); Bactin […] NO: 11); Bactin […] NO: 12). Data are presented as 2^-ΔΔCT using f-actin as the housekeeping gene and normalizing to either untreated cells or naïve control mice.

[3] = test system: mucosal MCs from the lung; conditions: cited from earlier work
[4] = test system: connective tissue MCs from the skin, the heart, or peritoneal MCs; conditions: cited from earlier work
MCs = conditions: previous studies; cited from earlier work

Compound	cutaneous inflammation (atopic dermatitis)	allergy to peanut allergen after CPE challenge (peanut allergy)	inflammasome (inflammasome)	effect in diabetic patients in sepsis (sepsis)	nuclear translocation of STAT5B (imaging flow cytometry) (STAT5; 30 and 60 minutes following IgE crosslinking)	pTyr695-STAT5 detected by flow cytometry (STAT5; 15 minutes after crosslinking IgE with Ag, NKA 1.0 μM)	calpain activity in supernatants (calpain)	ABCA1 detected on the cell surface (ABCA1 [1])	ABCA1 detected on the cell surface (ABCA1 [2])	IL10 mRNA in the skin (IL10 mRNA; MC-deficient (Mcpt5Cre^+×Rosa26DTA^+) mice)	IL10 mRNA levels in the skin (IL10 mRNA; MC-sufficient (Mcpt5Cre^−×Rosa26DTA^+) mice)	histamine release [3]	histamine release [4]	effect on MCs (β-hexosaminidase or histamine release as readouts) (MCs)
COc1ccc(Cl)cc1C(=O)NCCc1ccc(S(=O)(=O)NC(=O)NC2CCCCC2)cc1 [glyburide, reference compound]	reduces cutaneous inflammation	desensitizes	inhibits	anti-inflammatory and protective	–	–	–	–	–	–	–	–	–	–
Neurokinin A [NKA]	–	–	–	–	significantly reduced	reduced	significantly diminished	reduced the level of ABCA1	reduced the level of ABCA1	no difference	significantly increased	induces histamine release	not	no effect
